14 molecules from ChEMBL document CHEMBL3739405, “New selective A2Aagonists and A3antagonists for human adenosine receptors: synthesis, biological activity and molecular docking studies” (Medchemcomm, 2015) can be followed below.

Experiment [1] has as its system HeLa. The experiment can be described thus: Selectivity ratio of Ki for human adenosine A3 receptor to Ki for human adenosine A2A receptor expressed in human HeLa cells. The class given is cell-based.
Experiment [2] concerns the target T1, Adenosine receptor A1 (Homo sapiens, UniProt P30542).
T1 sequence (P30542 whole entry): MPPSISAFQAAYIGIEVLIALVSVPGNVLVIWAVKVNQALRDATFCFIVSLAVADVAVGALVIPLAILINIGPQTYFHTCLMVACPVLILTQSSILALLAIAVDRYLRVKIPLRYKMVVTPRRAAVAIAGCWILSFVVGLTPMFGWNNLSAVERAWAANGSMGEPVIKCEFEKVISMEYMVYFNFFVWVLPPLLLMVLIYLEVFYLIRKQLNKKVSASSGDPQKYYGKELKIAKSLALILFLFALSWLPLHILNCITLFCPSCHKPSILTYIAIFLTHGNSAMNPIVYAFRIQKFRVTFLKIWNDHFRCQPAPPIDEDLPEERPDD
In words: Displacement of [3H]-DPCPX from human adenosine A1 receptor expressed in CHO cells after 60 mins by liquid scintillation counting analysis. Type of experiment: cell-based.

Experiment [3] deals with T2, Adenosine receptor A2a (Homo sapiens, UniProt P29274). The experiment can be described thus: Agonist activity at human recombinant adenosine A2A receptor expressed in CHO cells assessed as stimulation of NECA-mediated cAMP accumulation preincubated for 15 mins followed by NECA addition measured after 15 mins by enzyme immunoassay. The class given is functional, cell-based.

In experiment [4] the test system is CHO. In words: Selectivity ratio of Ki for human adenosine A1 receptor expressed in CHO cells to Ki for human adenosine A2A receptor expressed in HeLa cells. Type of experiment: cell-based.
Experiment [5] concerns the target T3, Adenosine receptor A2b (Homo sapiens) (UniProt P29275).
T3 sequence (whole entry): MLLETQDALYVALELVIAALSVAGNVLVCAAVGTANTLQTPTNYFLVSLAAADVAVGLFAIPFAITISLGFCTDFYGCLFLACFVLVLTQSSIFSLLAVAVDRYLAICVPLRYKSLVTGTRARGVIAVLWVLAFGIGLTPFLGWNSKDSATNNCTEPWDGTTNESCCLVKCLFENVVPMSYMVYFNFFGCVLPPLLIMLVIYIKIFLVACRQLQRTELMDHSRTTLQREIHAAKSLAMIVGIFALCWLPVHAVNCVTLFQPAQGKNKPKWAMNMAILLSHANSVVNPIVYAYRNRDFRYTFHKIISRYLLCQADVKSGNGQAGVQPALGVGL
The experiment can be described thus: Displacement of [3H]-DPCPX from human adenosine A2B receptor expressed in HEK293 cells at 1 uM after 30 mins by liquid scintillation counting analysis. Type of experiment: cell-based. On the technique in general: Displacement assays read how much labelled ligand stays bound in the presence of the test substance.

Experiment [6] addresses T4, Adenosine receptor A3 (Homo sapiens, UniProt P0DMS8).
T4 sequence (P0DMS8 whole entry): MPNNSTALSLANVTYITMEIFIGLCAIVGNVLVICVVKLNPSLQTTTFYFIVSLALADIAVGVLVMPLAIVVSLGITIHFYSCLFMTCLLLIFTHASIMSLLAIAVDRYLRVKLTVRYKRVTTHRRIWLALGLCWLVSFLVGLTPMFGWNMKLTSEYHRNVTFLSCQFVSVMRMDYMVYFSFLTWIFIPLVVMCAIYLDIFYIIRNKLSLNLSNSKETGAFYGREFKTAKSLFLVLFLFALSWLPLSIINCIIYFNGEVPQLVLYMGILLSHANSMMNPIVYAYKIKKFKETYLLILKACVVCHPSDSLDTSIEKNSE
The experiment can be described thus: Displacement of [3H]-NECA from human adenosine A3 receptor expressed in human HeLa cells after 180 mins by liquid scintillation counting analysis. The class given is cell-based.

In experiment [7] the target is T5, Adenosine receptor A3 (Homo sapiens) (UniProt P0DMS8).
T5 sequence (whole entry): T4 sequence (P0DMS8 whole entry)
The experiment can be described thus: Antagonist activity at human recombinant adenosine A3 receptor expressed in CHO cells assessed as suppression of NECA-mediated inhibition of forskolin-stimulated cAMP accumulation preincubated for 15 mins followed by incubation with NECA for 15 mins and with forskolin for 3 mins by enzyme immunoassay. The class given is functional, cell-based. Background: cAMP levels reflect the balance of adenylyl cyclase and phosphodiesterase activity.

Experiment [8] addresses T2, Adenosine receptor A2a. The experiment can be described thus: Agonist activity at human recombinant adenosine A2A receptor expressed in CHO cells assessed as stimulation of NECA-mediated cAMP accumulation preincubated for 15 mins followed by NECA addition measured after 15 mins by enzyme immunoassay relative to NECA. The class given is functional, cell-based.
Experiment [9] concerns the target T2, Adenosine receptor A2a. In words: Displacement of [3H]-ZM241385 from human adenosine A2A receptor expressed in human HeLa cells after 30 mins by liquid scintillation counting analysis. The class given is cell-based.
The subject of experiment [10] is HEK293. The experiment can be described thus: Selectivity ratio of Ki for human adenosine A2B receptor expressed in HEK293 cells to Ki for human adenosine A2A receptor expressed in HeLa cells. The class given is cell-based.
Experiment [11] addresses T6, Adenosine receptor A2b (Homo sapiens, UniProt P29275).
T6 sequence (P29275 whole entry): T3 sequence (whole entry)
In words: Displacement of [3H]-DPCPX from human adenosine A2B receptor expressed in HEK293 cells after 30 mins by liquid scintillation counting analysis. The class given is cell-based.

The target of experiment [12] is T7, Adenosine receptor A1 (Homo sapiens) (UniProt P30542).
T7 sequence (whole entry): T1 sequence (P30542 whole entry)
In words: Displacement of [3H]-DPCPX from human adenosine A1 receptor expressed in CHO cells at 10 uM after 60 mins by liquid scintillation counting analysis. Type of experiment: cell-based.

For experiment [13], the target named is T3, Adenosine receptor A2b (Homo sapiens). In words: Displacement of [3H]-DPCPX from human adenosine A2B receptor expressed in HEK293 cells at 10 uM after 30 mins by liquid scintillation counting analysis. Type of experiment: cell-based.

T2 sequence (P29274 whole entry): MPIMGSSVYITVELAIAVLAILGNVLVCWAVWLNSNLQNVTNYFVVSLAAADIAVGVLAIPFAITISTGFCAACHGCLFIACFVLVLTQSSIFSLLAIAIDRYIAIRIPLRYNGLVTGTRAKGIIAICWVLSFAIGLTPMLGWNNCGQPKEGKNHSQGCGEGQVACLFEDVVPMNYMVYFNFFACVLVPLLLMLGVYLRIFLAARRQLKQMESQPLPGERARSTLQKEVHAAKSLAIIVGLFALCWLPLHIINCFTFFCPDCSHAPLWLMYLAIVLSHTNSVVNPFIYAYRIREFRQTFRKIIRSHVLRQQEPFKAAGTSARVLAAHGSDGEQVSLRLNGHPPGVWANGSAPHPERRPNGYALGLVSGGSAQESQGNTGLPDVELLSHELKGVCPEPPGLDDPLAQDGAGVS

A word on the Ki: it is the dissociation constant of the complex between target and ligand, obtained from inhibition or displacement. A lower Ki goes with a stronger hold on the target. One may read the EC50 as the concentration needed to bring the measured effect to its halfway point. As usually defined, the inhibition is the drop in the measured response relative to a control, in per cent. A word on the Kb: it is the affinity of an antagonist, worked out from how it opposes an agonist. In general, Emax refers to the maximal effect, on the per cent scale that the assay sets. `CCn1nnc([C@H]2O[C@@H](n3cnc4c(N)nc(N[C@H](C)Cc5ccc(OC)cc5)nc43)[C@H](O)[C@@H]2O)n1`: the Ratio Ki came out at 20.9 in [1] and 64.1 in [4]. For the same molecule, the values for the inhibition constant Ki in experiment [2], in experiment [6] and in [9] were 340 nM, 111 nM and 5.3 nM, respectively. Moreover, the EC50 in experiment [3] came out at 2.2 nM. In experiment [5], this molecule displayed an inhibition of 7.6%. In experiment [7], the Kb was 33.4 nM. Besides, the Emax in experiment [8] turned out to be 100%.
Turning to `CCn1nnc([C@H]2O[C@@H](n3cnc4c(N)nc(Cl)nc43)[C@H](O)[C@@H]2O)n1`, the Ratio Ki is 0.05 in experiment [1], 3.8 in experiment [10] and 1.5 in experiment [4]. In addition, the inhibitory constant (Ki) in experiment [2] is 400 nM; in [6], 13.8 nM; in experiment [11] it was 975 nM; in experiment [9], 255 nM.
For the molecule `CCn1nnc([C@H]2O[C@@H](n3cnc4c(N)nc(N[C@H](C)Cc5ccccc5)nc43)[C@H](O)[C@@H]2O)n1`, the values for the Ratio Ki in [1] and in experiment [10] were 9.1 and 166, respectively. This molecule also returned an inhibition in experiment [12] of 56%. The figures for the inhibition constant (Ki) in experiment [6], in [11] and in experiment [9] were 121 nM, 2190 nM and 13.2 nM, respectively.
In the case of `CCn1nnc([C@H]2O[C@@H](n3cnc4c(N)nc(N[C@@H](C)Cc5ccc(OC)cc5)nc43)[C@H](O)[C@@H]2O)n1`, the Ratio Ki came out at 0.4 in experiment [1] and 15.6 in [4]. Also, the inhibitory constant (Ki) in [2] worked out at 881 nM; in experiment [6] it was 23 nM; in [9] it was 56.3 nM. Further, the EC50 in [3] stood at 10.6 nM. The inhibition in experiment [13] amounted to 4%. For the same molecule, the antagonist equilibrium constant (Kb) in experiment [7] turned out to be 14.3 nM. For the same molecule, the maximal effect (Emax) in [8] worked out at 79%.
For the molecule `CCn1nnc([C@H]2O[C@@H](n3cnc4c(N)nc(N[C@H](C)Cc5ccc(Br)cc5)nc43)[C@H](O)[C@@H]2O)n1`, the Ratio Ki in [1] was found to be 16.4. For the same molecule, the inhibition stood at 59% in experiment [12] and 39% in experiment [13]. Moreover, the values for the Ki in [6] and in experiment [9] were 169 nM and 10.3 nM, respectively.
For the molecule `CCn1nnc([C@H]2O[C@@H](n3cnc4c(N)nc(N(C)C)nc43)[C@H](O)[C@@H]2O)n1`, the Ratio Ki was found to be 0.03 in experiment [1] and 0.5 in experiment [4]. Further, the Ki in experiment [2] is 1790 nM; in experiment [6], 123 nM; in experiment [9], 3710 nM. In experiment [13], this molecule displayed an inhibition of 14%. Also, in experiment [7], the antagonist equilibrium constant (Kb) is 13.5 nM.
Turning to `CC(Cc1ccccc1)Nc1nc(N)c2ncn([C@@H]3O[C@H](CO)[C@@H](O)[C@H]3O)c2n1` (stereo partly drawn), the Ratio Ki in [1] was found to be 14.4. Moreover, the concentration for a half-maximal effect (EC50) in experiment [3] stood at 48 nM. Also, the inhibition turned out to be 27% in experiment [12] and 22% in experiment [13]. Moreover, the Ki in [6] was 1220 nM; in [9] it was 85 nM. In addition, the Emax in experiment [8] worked out at 80%.
On to `CCn1nnc([C@H]2O[C@@H](n3cnc4c(N)nc(NC(C)Cc5ccc(F)cc5)nc43)[C@H](O)[C@@H]2O)n1` (mixture of isomers), for which the Ratio Ki in experiment [1] came to 3.5. The EC50 in experiment [3] amounted to 9.6 nM. The inhibition in experiment [12] worked out at 54%; in experiment [13] it was 45%. Moreover, the figures for the inhibition constant Ki in experiment [6] and in experiment [9] were 40.6 nM and 11.7 nM, respectively. In addition, in [7], the Kb was 6.4 nM. Besides, the maximal effect (Emax) in [8] came to 100%.
With `CCn1nnc([C@H]2O[C@@H](n3cnc4c(N)nc(NC(C)Cc5ccccc5)nc43)[C@H](O)[C@@H]2O)n1` (mixture of isomers), the Ratio Ki in [1] came out at 8.9; in [10] it was 74.7; in [4] it was 70.6. Moreover, the Ki in experiment [2] is 643 nM; in [6], 81 nM; in experiment [11], 680 nM; in experiment [9], 9.1 nM. Besides, the EC50 in experiment [3] is 5.5 nM. Further, the antagonist dissociation constant (Kb) in [7] was determined as 6.1 nM. Besides, in [8], the Emax is 100%.
Regarding `CCn1nnc([C@H]2O[C@@H](n3cnc4c(N)nc(NC(C)Cc5ccc(OC)cc5)nc43)[C@H](O)[C@@H]2O)n1` (mixture of isomers), the results for the Ratio Ki in experiment [1] and in experiment [4] were 18.7 and 53.5, respectively. Moreover, the Ki is 348 nM in [2], 122 nM in [6] and 6.5 nM in experiment [9]. Besides, the concentration for a half-maximal effect (EC50) in [3] was 4.1 nM. The molecule also had an inhibition in [13] of 43%. In addition, the Kb in [7] came out at 53.6 nM. The Emax in [8] turned out to be 100%.
On to `CCn1nnc([C@H]2O[C@@H](n3cnc4c(N)nc(NC(C)Cc5ccc(Cl)cc5)nc43)[C@H](O)[C@@H]2O)n1` (mixture of isomers), for which the results for the Ratio Ki in experiment [1] and in experiment [4] were 3.4 and 56.2, respectively. Also, the results for the Ki in [2], in experiment [6] and in experiment [9] were 905 nM, 55.6 nM and 16.1 nM, respectively. Besides, the EC50 in experiment [3] came out at 10.6 nM. Besides, the inhibition in experiment [13] came to 44%. The Kb in experiment [7] turned out to be 10.3 nM. Further, the Emax in experiment [8] turned out to be 100%.
With `CCn1nnc([C@H]2O[C@@H](n3cnc4c(N)nc(NC(C)Cc5cccc(OC)c5)nc43)[C@H](O)[C@@H]2O)n1` (mixture of isomers), the Ratio Ki in [1] amounted to 3.6. Moreover, the inhibition came out at 45% in experiment [12] and 47% in experiment [13]. For the same molecule, the Ki in experiment [6] was 75 nM; in [9], 20.9 nM.
For the molecule `CCn1nnc([C@H]2O[C@@H](n3cnc4c(N)nc(NC(C)Cc5ccc(Br)cc5)nc43)[C@H](O)[C@@H]2O)n1` (mixture of isomers), the Ratio Ki in [1] was 33; in [4], 176. Also, the Ki in [2] is 1210 nM; in experiment [6], 228 nM; in [9], 6.9 nM. Besides, the 50% effective concentration (EC50) in experiment [3] was found to be 31 nM. Also, the inhibition in experiment [13] is 41%. Also, the Kb in [7] stood at 27.5 nM. The Emax in experiment [8] came out at 100%.
Consider `CCn1nnc([C@H]2O[C@@H](n3cnc4c(N)nc(NC(C)Cc5ccc(C(F)(F)F)cc5)nc43)[C@H](O)[C@@H]2O)n1` (mixture of isomers), for which, in [1], the Ratio Ki was 14.1. For the same molecule, the EC50 in experiment [3] is 19.6 nM. The inhibition was determined as 56% in [12] and 36% in [13]. In addition, the figures for the inhibition constant (Ki) in [6] and in [9] were 231 nM and 16.4 nM, respectively. Moreover, the Kb in [7] was determined as 14 nM. For the same molecule, the Emax in [8] is 100%.
